According to patent US20100284927A1, “USE OF MRI CONTRAST AGENTS FOR EVALUATING THE TREATMENT OF TUMORS” (University of Utah Research Foundation, priority 2007, published 2010):
Values joined by “and” are separate entries in the source; they are usually repeats but may differ in a detail not shown here. Equal values may be shown once. Marks after values point to notes of the source that are not given here.

Legend:
[1] = system: MDA-MB-231 human breast cancer tumors; assay: Contrast enhanced 2D spin echo MRI, SI enhancement of tumors (section I); type: in vivo, athymic nude mice; conditions: 2D SE images; for SI enhancement ratio (SI post/SI pre) of the whole untreated tumor: Gd-(DTPA-BMA) 0.1 mmol-Gd/kg, GDCC-40 0.05 mmol-Gd/kg i.v.; for residual tumor enhancement ratio (SI post/SI pre): residual tumor after treatment, Gd-(DTPA-BMA) 0.1, GDCC-40 0.05 mmol-Gd/kg i.v.
[2] = system: MDA-MB-231 human breast cancer tumors; assay: DCE-MRI with linear compartmental model, PV and FLR, SI time curves (section I); type: in vivo, athymic nude mice; conditions: for FLR, tumor center / FLR, tumor rim / FLR, whole tumor: fractional leakage rate; for FLR, tumor center / FLR, tumor rim / FLR, whole tumor / PV, tumor center / PV, tumor rim / PV, whole tumor: GDCC-40 0.05, Gd-DTPA-BMA 0.1 mmol-Gd/kg; for PV, tumor center / PV, tumor rim / PV, whole tumor: plasma volume; for PV values (range over tumor regions, Table 5) / estimated FLR values (range over tumor regions, Table 5): tumor center to tumor rim
[3] = system: HT-29 human colon carcinoma; assay: DCE-MRI assessment of anti-angiogenic effect of Avastin, K^trans and fPV of tumor rim; type: in vivo, NCr-nu/nu nude mice; conditions: for K^trans 36 h after treatment / fpv 36 h after treatment: 36 h after initiating Avastin 200 μg/mouse i.p.; for K^trans 7 days after treatment / fpv 7 days after treatment: 7 days after initiating Avastin 200 μg/mouse i.p. every 2 days; for K^trans pretreatment / fpv pretreatment: before Avastin, GDCC40K 0.05, Omniscan 0.1 mmol-Gd/kg
[4] = system: MDA-MB-231 human breast cancer tumors; assay: 2D spin echo MRI with various doses of GDCC-40 (section II); type: in vivo, athymic nude mice; conditions: 2D SE images
[5] = system: MDA-MB-231 human breast cancer tumors; assay: DCE-MRI with linear compartmental model, PV, FLR and PS (section II); type: in vivo, athymic nude mice
[6] = reference (36); cited from earlier work
[7] = system: HT-29 human colon carcinoma; assay: Effect of Avastin on growth of HT-29 colon cancer; type: in vivo, NCr-nu/nu nude mice; conditions: 36 h after Avastin-treatment, 200 μg/mouse i.p.; pre-treatment 508±185 mm^3
Experimental: The study protocol was approved by the local ethics committee for animal care and use. HT-29 human colon carcinoma cell line was purchased from American Type Culture Collection (ATCC, Manassas, Va.) with ATCC number HTB-38™. HT-29 cell line was cultured using ATCC complete growth medium (5 McCoy's Medium with 10% fetal bovine serum).
Athymic female NCr-nu/nu nude mice at 4 weeks were purchased form National Cancer Institute at Frederick, M D. Concentrated HT-29 cells in complete medium was mixed with Matrigel basement membrane matrix (BD Biosciences, San Jose, Calif.) at 1:1 ratio. 2×10^6 cells in 100 μl mixture were implanted s.c. in the flank of 12 mice weighing about 23 g.
Animals were selected for study when the tumors reached approximately 1 cm in diameter (about 3 weeks after tumor cells inoculation) and were randomly divided into two groups (each group n=6, group1 and group2). One group (group1) underwent DCE-MRI with macromolecular contrast agent-GDCC40K (MW: 40 KDa), and another group (group2) underwent DCE-MRI with small molecular weight contrast agent—Ominiscan (MW: 574 Da). Before treatment, Ominiscan was injected at 0.1 mmol-Gd/kg for […], GDCC40OK (40K Da) was injected at 0.05 mmol-Gd/kg for […]. […]
In addition, tumor size of all animals was determined using a caliper during the study.

[8] = in mice body; cited from earlier work
human VEGF-A = conditions: in vivo; cited from earlier work
Sequence of human VEGF-A (P15692 207-311 limits assumed): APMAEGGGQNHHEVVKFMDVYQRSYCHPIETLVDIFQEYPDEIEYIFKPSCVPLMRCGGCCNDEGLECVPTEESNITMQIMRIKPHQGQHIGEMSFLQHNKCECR

Compound | SI enhancement ratio (SI post/SI pre) of the whole untreated tumor [1] | residual tumor enhancement ratio (SI post/SI pre) [1] | time at which SI of muscle reached plateau ([2]; DCE-MRI time course) | time at which SI of tumor rim reached a maximum ([2]; DCE-MRI time course) | FLR, tumor center [2] | FLR, tumor rim [2] | FLR, whole tumor [2] | PV, tumor center [2] | PV, tumor rim [2] | PV, whole tumor [2] | PV values (range over tumor regions, Table 5) [2] | estimated FLR values (range over tumor regions, Table 5) [2] | K^trans 36 h after treatment [3] | fpv 36 h after treatment [3] | K^trans 7 days after treatment [3] | fpv 7 days after treatment [3] | K^trans pretreatment [3] | fpv pretreatment [3] | other results
CNC(=O)CN(CCN(CCN(CC(=O)[O-])CC(=O)NC)CC(=O)[O-])CC(=O)[O-].[Gd+3] [Gd-DTPA-BMA, gadodiamide, reference compound] | 1.60±0.19 | 1.66±0.10 | about 1.5 min | ~7 min | 9.93 ± 3.19 h⁻¹ | 28.42 ± 4.36 h⁻¹ | 20.86 ± 1.18 h⁻¹ | 0.098 ± 0.019 | 0.190 ± 0.018 | 0.138 ± 0.020 | 0.098 to 0.190 | 14.93 to 28.42 h⁻¹ | 0.066 ± 0.047 | 0.062 ± 0.039 | 0.069 ± 0.055 | 0.137 ± 0.034 | 0.07 ± 0.013 | 0.102 ± 0.047 | time at which tumor rim/muscle SI ratio reached plateau ([2]; DCE-MRI time course): ≤ 2 min
(Gd-DTPA)-cystamine copolymers [GDCC-40] | 1.65±0.21 | 1.51±0.19 | about 1.5 min | about 12 min | 3.24 ± 1.10* 1/hr | 5.21 ± 0.88* 1/hr | 4.57 ± 0.91* 1/hr | 0.058 ± 0.046 | 0.082 ± 0.038 | 0.076 ± 0.032 | 0.058 to 0.082 | 3.24 to 5.21 h⁻¹ | 0.008 ± 0.004 | 0.008 ± 0.005 | 0.028 ± 0.029 | 0.030 ± 0.022 | 0.014 ± 0.002 | 0.028 ± 0.005 | ratio of SI at the tumor rim to SI of the muscle ([2]; at 15 min): more than 3; time after injection to reach contrast (SI of tumor rim to SI of muscle) similar to Gd-DTPA-BMA ([2]; mouse, in vivo): about 4 min; untreated tumor enhancement ([4]; 0.01 mmol-Gd/kg): 0.14±0.03; untreated tumor enhancement ([4]; 0.025 mmol-Gd/kg): 0.26±0.05; untreated tumor enhancement ([4]; 0.05 mmol-Gd/kg): 0.62±0.19; FLR, untreated tumor ([5]; 0.01 mmol-Gd/kg): 6.05 and 6.05 ± 3.58; PS, untreated tumor ([5]; 0.01 mmol-Gd/kg): 0.997 ± 0.613; PV, untreated tumor ([5]; 0.01 mmol-Gd/kg): 0.124 and 0.124 ± 0.045; FLR, untreated tumor ([5]; 0.025 mmol-Gd/kg): 5.06 and 5.06 ± 1.84; PS, untreated tumor ([5]; 0.025 mmol-Gd/kg): 0.611 ± 0.351; PV, untreated tumor ([5]; 0.025 mmol-Gd/kg): 0.123 and 0.123 ± 0.059; FLR, untreated tumor ([5]; 0.05 mmol-Gd/kg): 3.95 ± 0.81; PS, untreated tumor ([5]; 0.05 mmol-Gd/kg): 0.517 ± 0.216; PV, untreated tumor ([5]; 0.05 mmol-Gd/kg): 0.103 ± 0.043
Albumin-Gd-DTPA | – | – | – | – | – | – | – | – | – | – | – | – | – | – | – | – | – | – | FLR values estimated using Albumin-Gd-DTPA [6]: 1.27 to 8.10 h⁻¹; PV values estimated using Albumin-Gd-DTPA [6]: 0.023 to 0.065
Bevacizumab [Avastin] | – | – | – | – | – | – | – | – | – | – | – | – | – | – | – | – | – | – | tumor size [7]: 510±171 mm^3; terminal half-life [8]: 1-2 weeks; dose enough to completely inhibit human VEGF-A (human VEGF-A): 50-100 μg/mouse
